Tested on: patients with refractory metastatic colorectal cancer (mCRC)
Assay: TAS-102-related toxicity (neutropenia, leukopenia, anemia, anorexia, nausea, diarrhea; CTCAE grade) in training/evaluation and testing/validation cohorts, association with SNPs
Format: in vivo, human
Conditions: for frequency of Gr3≤ neutropenia: evaluation cohort; for incidence of Gr3≤ neutropenia: validation cohort
Text: Such effects include but are not limited to febrile neutropenia, leukopenia, stomatitis, neutropenia, hand-foot syndrome, cardiac ischemia, thrombocytopenia, increase in alanine aminotransferase level, increase in aspartate aminotransferase level, increase in total bilirubin, increase in alkaline phosphatase level, increase in creatinine level, anemia, anorexia, nausea, vomiting, decreased appetite, fatigue, abdominal pain, fever, asthenia, and diarrhea. […] “Subchronic” toxicity is the ability of a drug substance to cause harmful or adverse effects for […] but less than the lifetime of the exposed organism. “Chronic” toxicity is the ability of a drug substance or combination therapy to cause harmful effects over an extended period, usually upon repeated or continuous exposure, sometimes lasting for the entire life of the exposed organism. Adverse events are classified and graded by severity. Grade 1 adverse events: mild; asymptomatic or mild symptoms; clinical or diagnostic observations only; intervention not indicated. Grade 2 adverse events: moderate; minimal, local or noninvasive intervention indicated; limiting age-appropriate instrumental activities of daily living (ADL). Grade 3 adverse events: severe or medically significant but not immediately life-threatening; hospitalization or prolongation of hospitalization indicated; disabling; limiting self care activities of daily living. Grade 4 adverse events: life-threatening consequences; urgent intervention indicated. Grade 5 adverse event: death related to AE (Department of Health and Human Services, National Institutes of Health, National Cancer Institute. Common terminology criteria for adverse events (CTCAE) v4.03. 2010).
The primary endpoint in this study was progression-free survival (PFS), and the secondary endpoints were overall survival (OS) and disease control rate (DCR). PFS was calculated from the date of starting treatment to the first observation of disease progression or death from any cause. If a patient had no disease progression or death, PFS was censored at the date of last follow up. OS was calculated from the date of starting treatment until the date of death from any cause or the date of the last follow-up, at which point OS was censored. The disease control rate (DCR) was defined as the proportion of patients who achieved a stable disease (SD) or […] according to RECISTv1.1. Chi-square test was used to examine the difference in baseline patient characteristics among the three cohorts. Allelic distribution of all SNPs by ethnicity for deviation from Hardy-Weinberg equilibrium and the allelic frequencies of SNPs were tested using the Chi-square tests with one degree of freedom. The associations between candidate SNPs and disease control, and toxicities were examined using contingency tables and Fisher's exact test. The associations of SNPs with PFS and OS were analysed using Kaplan-Meier curves and the log-rank test. Because the true mode of inheritance of candidate SNPs was not established yet, a codominant or dominant genetic model if appropriate was considered.
All patients underwent the treatment in salvage-line setting. […] In all patients, adverse events were graded according to the Common Terminology Criteria for Adverse Events, version 4.0.
The primary endpoint in this study was progression-free survival (PFS), and the secondary endpoints were overall survival (OS) and disease control rate (DCR). […] Data of patients without disease progression or death were censored at the date of last follow up. OS was calculated from the date of starting treatment until the date of death from any cause. In patients who were lost to follow-up, data were censored at the date of last follow up. The disease control rate (DCR) was defined as the proportion of patients who achieved a stable disease (SD) or […] according to RECIST v1.1.

Trifluridine/tipiracil [TAS-102]
frequency of Gr3≤ neutropenia (ATM rs609429 C/C (n=4/14)): 29% | frequency of Gr3≤ neutropenia (ATM rs609429 any G allele (n=16/38)): 42% | incidence of grade 2≤ neutropenia (training cohort): 61.5% | incidence of grade 3≤ neutropenia (training cohort): 38.5% | frequency of Gr2< neutropenia (training cohort, hENT1 rs760370 A/A (n=12/27)): 44% | frequency of Gr2< neutropenia (training cohort, hENT1 rs760370 any G allele (n=20/25)): 80% | treatment delay caused by neutropenia (training cohort, share of treatment delays (22/24)): 91.8% | incidence of Gr3≤ neutropenia (ATM rs609429 C/C (n=13/51)): 26% | incidence of Gr3≤ neutropenia (ATM rs609429 any G allele (n=34/78)): 44%

Source: US20190233884A1 (University of Southern California, priority 2016, published 2019)
